From PMC7587356, “High-Throughput Screening for Inhibitors of the SARS-CoV-2 Protease Using a FRET-Biosensor” (Molecules, 2020)
Structures can show the parent of a compound that is named as a salt. Where two headings read alike, the source gives them in different places.

Target: SARS-CoV-2 3CLpro (Severe acute respiratory syndrome coronavirus 2, UniProt P0DTD1)
Assay: biochemical
Assay type: biochemical
Set-up: Replicate_1 / Replicate_2 / mean / mean (LOPAC_screen_w_protease): unit not given here
Conditions: for inhibition at 5 µM: 4 h
[1] = sheet LOPAC_screen_w_protease, primary screen with protease, mean of two replicates, read-out: mean
[2] = sheet LOPAC_screen_w_protease, primary screen with protease, replicate 1, read-out: Replicate_1
[3] = sheet LOPAC_screen_w_protease, primary screen with protease, replicate 2, read-out: Replicate_2
[4] = LOPAC1280 primary screen with protease, 5 µM compound, replicate 1, read-out: Replicate_1 (LOPAC_screen_w_protease)
[5] = LOPAC1280 primary screen with protease, 5 µM compound, replicate 2, read-out: Replicate_2 (LOPAC_screen_w_protease)
[6] = LOPAC1280 primary screen with protease, 5 µM compound, mean of the two replicates
[7] = read-out: Replicate_1 (LOPAC_screen_w_protease)
[8] = read-out: Replicate_2 (LOPAC_screen_w_protease)
[9] = sheet LOPAC_screen_w_protease, primary screen with protease, compound at 5 µM, mean of two replicates, read-out: mean
[10] = sheet LOPAC_screen_w_protease, primary screen with protease, compound at 5 µM, replicate 1, read-out: Replicate_1
[11] = sheet LOPAC_screen_w_protease, primary screen with protease, compound at 5 µM, replicate 2, read-out: Replicate_2
[12] = sheet LOPAC_screen_w_protease, primary screen at 5 µM, mean of two replicates
[13] = sheet LOPAC_screen_w_protease, primary screen at 5 µM, replicate 1
[14] = sheet LOPAC_screen_w_protease, primary screen at 5 µM, replicate 2
[15] = LOPAC1280 primary screen with protease, 5 µM compound, mean of two replicates
[16] = sheet LOPAC_screen_w_protease, LOPAC1280 primary screen with protease, 5 µM compound, mean of the two replicates
[17] = sheet LOPAC_screen_w_protease, LOPAC1280 primary screen with protease, 5 µM compound, replicate 1
[18] = sheet LOPAC_screen_w_protease, LOPAC1280 primary screen with protease, 5 µM compound, replicate 2
[19] = LOPAC1280 primary screen with protease, 5 µM compound, replicate 1
[20] = LOPAC1280 primary screen with protease, 5 µM compound, replicate 2
[21] = sheet LOPAC_screen_w_protease, primary screen of LOPAC1280 at 5 µM with protease, mean of the two replicates
[22] = sheet LOPAC_screen_w_protease, primary screen of LOPAC1280 at 5 µM with protease, replicate 1
[23] = sheet LOPAC_screen_w_protease, primary screen of LOPAC1280 at 5 µM with protease, replicate 2

## CN1CCN(C2=Nc3cc(Cl)ccc3Nc3ccccc32)CC1 [Clozapine]
[1]
  inhibition at 5 µM: 2.28%
[2]
  inhibition at 5 µM: 2.27%
[3]
  inhibition at 5 µM: 2.3%

## C[C@]12CCC(=O)C=C1CC[C@@H]1[C@@H]2CC[C@@]2(C)[C@H]1CC[C@]2(O)C(=O)CO [Cortexolone]
Sheet LOPAC_screen_w_protease, LOPAC1280 at 5 µM, mean of two replicates, read-out: mean
  inhibition at 5 µM: 1.01%
Sheet LOPAC_screen_w_protease, LOPAC1280 at 5 µM, replicate 1, read-out: Replicate_1
  inhibition at 5 µM: 2.17%
Sheet LOPAC_screen_w_protease, LOPAC1280 at 5 µM, replicate 2, read-out: Replicate_2
  inhibition at 5 µM: -0.141%

## CC(=O)OCC(=O)[C@@]1(O)CC[C@H]2[C@@H]3CCC4=CC(=O)CC[C@]4(C)[C@H]3C(=O)C[C@@]21C [Cortisone 21-acetate]
[4]
  inhibition at 5 µM: 2.66%
[5]
  inhibition at 5 µM: 0.881%
[6]
  mean (LOPAC_screen_w_protease): 1.771

## CN(C)CCC=C1c2ccccc2C=Cc2ccccc21 [Cyclobenzaprine hydrochloride]
  mean (LOPAC_screen_w_protease): 2.047
[7]
  inhibition at 5 µM: 3.03%
[8]
  inhibition at 5 µM: 1.06%

## O=P1(N(CCCl)CCCl)NCCCO1 (stereo not drawn) [Cyclophosphamide monohydrate]
read-out: Replicate_1
  inhibition at 5 µM: -1.54%
read-out: Replicate_2
  inhibition at 5 µM: 3.01%
read-out: mean
  inhibition at 5 µM: 0.736%

## NS(=O)(=O)c1cc2c(cc1Cl)NC(C1CC3C=CC1C3)NS2(=O)=O (stereo not drawn) [Cyclothiazide]
[9]
  inhibition at 5 µM: 2.93%
[10]
  inhibition at 5 µM: 4.25%
[11]
  inhibition at 5 µM: 1.61%

## CN1CCC(=C2c3ccccc3C=Cc3ccccc32)CC1 [Cyproheptadine hydrochloride]
[4]
  inhibition at 5 µM: 4.15%
[5]
  inhibition at 5 µM: 0.0977%
[6]
  mean (LOPAC_screen_w_protease): 2.126

## CC(=O)O[C@]1(C(C)=O)CC[C@H]2[C@@H]3C=C(Cl)C4=CC(=O)[C@@H]5C[C@@H]5[C@]4(C)[C@H]3CC[C@@]21C [Cyproterone acetate]
Sheet LOPAC_screen_w_protease, primary screen with protease, 5 µM, mean of two replicates, read-out: mean
  inhibition at 5 µM: -0.427%
Sheet LOPAC_screen_w_protease, primary screen with protease, 5 µM, replicate 1, read-out: Replicate_1
  inhibition at 5 µM: 1.58%
Sheet LOPAC_screen_w_protease, primary screen with protease, 5 µM, replicate 2, read-out: Replicate_2
  inhibition at 5 µM: -2.43%

## NCCSSCCN [Cystamine dihydrochloride]
Sheet LOPAC_screen_w_protease, primary screen at 5 µM, mean of two replicates, read-out: mean (LOPAC screen with protease)
  inhibition at 5 µM: 14.4%
Sheet LOPAC_screen_w_protease, primary screen at 5 µM, replicate 1, read-out: Replicate_1 (LOPAC screen with protease)
  inhibition at 5 µM: 14.2%
Sheet LOPAC_screen_w_protease, primary screen at 5 µM, replicate 2, read-out: Replicate_2 (LOPAC screen with protease)
  inhibition at 5 µM: 14.5%

## Cl.NCCS [Cysteamine hydrochloride]
[12]
  mean (LOPAC screen with protease): 8.502
[13]
  Replicate_1 (LOPAC screen with protease): 9.009
[14]
  Replicate_2 (LOPAC screen with protease): 7.996

## N[C@H](CCCCCP(=O)(O)O)C(=O)O [D(-)-2-Amino-7-phosphonoheptanoic acid]
Sheet LOPAC_screen_w_protease, primary screen with protease, compound at 5 µM, mean of two replicates
  mean: 3.051
Sheet LOPAC_screen_w_protease, primary screen with protease, compound at 5 µM, replicate 1
  Replicate_1: 3.469
Sheet LOPAC_screen_w_protease, primary screen with protease, compound at 5 µM, replicate 2
  Replicate_2: 2.633

## S=C([S-])OC1CC2CC1C1CCCC21.[K+] [D-609 potassium]
Sheet LOPAC_screen_w_protease, LOPAC1280 primary screen at 5 µM, with protease, mean of two replicates
  mean: -1.918
Sheet LOPAC_screen_w_protease, LOPAC1280 primary screen at 5 µM, with protease, replicate 1
  Replicate_1: -2.8235
Sheet LOPAC_screen_w_protease, LOPAC1280 primary screen at 5 µM, with protease, replicate 2
  Replicate_2: -1.0122

## N[C@@H]1CON=C1O [D-Cycloserine]
[4]
  inhibition at 5 µM: 2.63%
[5]
  inhibition at 5 µM: 0.045%
[15]
  mean (LOPAC_screen_w_protease): 1.34

## Clc1ccc(N2C[C@H]3CC[C@@H](C2)N3)nn1 [DBO-83]
[16]
  mean: 6.059
[17]
  Replicate_1: 7.536
[18]
  Replicate_2: 4.581

## CCn1c(=O)[nH]c2cc(Cl)c(Cl)cc21 [DCEBIO]
[6]
  mean (LOPAC_screen_w_protease): 1.96
[19]
  Replicate_1 (LOPAC_screen_w_protease): 3.009
[20]
  Replicate_2 (LOPAC_screen_w_protease): 0.9113

## CCC(=O)N1CCN(C(=O)c2ccccc2)CC1 [DM 235]
[15]
  mean (LOPAC_screen_w_protease): 1.365
[19]
  Replicate_1 (LOPAC_screen_w_protease): 0.6823
[20]
  Replicate_2 (LOPAC_screen_w_protease): 2.048

## O=[N+]([O-])c1cc2nc(O)c(O)nc2cc1[N+](=O)[O-] [DNQX]
  Replicate_1: 2.956
  Replicate_2: 2.135
  mean: 2.546

## CCN(CCCl)Cc1ccccc1Br.Cl [DSP-4 hydrochloride]
[16]
  mean: 6.32
[17]
  Replicate_1: 6.498
[18]
  Replicate_2: 6.142

## O=c1c(-c2ccc(O)cc2)coc2cc(O)ccc12 [Daidzein]
read-out: Replicate_1
  inhibition at 5 µM: 5.3%
read-out: Replicate_2
  inhibition at 5 µM: 1.03%
read-out: mean
  inhibition at 5 µM: 3.16%

## C#C[C@]1(O)CC[C@H]2[C@@H]3CCC4=Cc5oncc5C[C@]4(C)[C@H]3CC[C@@]21C [Danazol]
[1]
  inhibition at 5 µM: 2.5%
[2]
  inhibition at 5 µM: 4.08%
[3]
  inhibition at 5 µM: 0.911%

## N=C(N)N1CCc2ccccc2C1 [Debrisoquin sulfate]
read-out: Replicate_1
  inhibition at 5 µM: 2.87%
read-out: Replicate_2
  inhibition at 5 µM: 3.04%
read-out: mean
  inhibition at 5 µM: 2.96%

## C[N+](C)(C)CCCCCCCCCC[N+](C)(C)C.[Br-].[Br-] [Decamethonium dibromide]
Sheet LOPAC_screen_w_protease, LOPAC1280 at 5 µM, mean of two replicates
  mean: 1.23
Sheet LOPAC_screen_w_protease, LOPAC1280 at 5 µM, replicate 1
  Replicate_1: 2.965
Sheet LOPAC_screen_w_protease, LOPAC1280 at 5 µM, replicate 2
  Replicate_2: -0.5048

## CN(C)[C@@H]1C(O)=C(C(N)=O)C(=O)[C@@]2(O)C(O)=C3C(=O)c4c(O)ccc(Cl)c4[C@@H](O)[C@H]3C[C@@H]12 [Demeclocycline hydrochloride]
Sheet LOPAC_screen_w_protease, LOPAC1280 primary screen with protease, 5 µM compound, mean of the two replicates, read-out: mean
  inhibition at 5 µM: 4.52%
Sheet LOPAC_screen_w_protease, LOPAC1280 primary screen with protease, 5 µM compound, replicate 1, read-out: Replicate_1
  inhibition at 5 µM: 7.2%
Sheet LOPAC_screen_w_protease, LOPAC1280 primary screen with protease, 5 µM compound, replicate 2, read-out: Replicate_2
  inhibition at 5 µM: 1.84%

## Cc1cc(N)c2ccccc2[n+]1CCCCCCCCCCCCCC[n+]1c(C)cc(N)c2ccccc21.[I-].[I-] [Dequalinium analog, C-14 linker]
[12]
  mean (LOPAC screen with protease): 11.1281
[13]
  Replicate_1 (LOPAC screen with protease): 10.1675
[14]
  Replicate_2 (LOPAC screen with protease): 12.0887

## Cc1cc(N)c2ccccc2[n+]1CCCCCCCCCC[n+]1c(C)cc(N)c2ccccc21 [Dequalinium dichloride]
read-out: Replicate_1
  inhibition at 5 µM: 2.94%
read-out: Replicate_2
  inhibition at 5 µM: 1.41%
read-out: mean
  inhibition at 5 µM: 2.17%

## CNCCCN1c2ccccc2CCc2ccccc21 [Desipramine hydrochloride]
  mean (LOPAC_screen_w_protease): 1.646
[7]
  inhibition at 5 µM: 1.71%
[8]
  inhibition at 5 µM: 1.58%

## O=c1c2ccccc2[nH]c(=S)n1CCN1CCC(=C(c2ccc(F)cc2)c2ccc(F)cc2)CC1 [Diacylglycerol Kinase Inhibitor II]
Sheet LOPAC_screen_w_protease, LOPAC1280 primary screen at 5 µM, with protease, mean of two replicates, read-out: mean
  inhibition at 5 µM: -3.62%
Sheet LOPAC_screen_w_protease, LOPAC1280 primary screen at 5 µM, with protease, replicate 1, read-out: Replicate_1
  inhibition at 5 µM: -4.63%
Sheet LOPAC_screen_w_protease, LOPAC1280 primary screen at 5 µM, with protease, replicate 2, read-out: Replicate_2
  inhibition at 5 µM: -2.61%

## Cc1nc2sccn2c(=O)c1CCN1CCC(=C(c2ccccc2)c2ccc(F)cc2)CC1 [Diacylglycerol kinase inhibitor I]
[21]
  mean: 3.623
[22]
  Replicate_1: 4.4123
[23]
  Replicate_2: 2.833

## CC1=NS(=O)(=O)c2cc(Cl)ccc2N1 [Diazoxide]
Sheet LOPAC_screen_w_protease, primary screen of LOPAC1280 at 5 µM with protease, mean of the two replicates, read-out: mean
  inhibition at 5 µM: 3.37%
Sheet LOPAC_screen_w_protease, primary screen of LOPAC1280 at 5 µM with protease, replicate 1, read-out: Replicate_1
  inhibition at 5 µM: 4.67%
Sheet LOPAC_screen_w_protease, primary screen of LOPAC1280 at 5 µM with protease, replicate 2, read-out: Replicate_2
  inhibition at 5 µM: 2.07%

## O=C(O)Cc1ccccc1Nc1c(Cl)cccc1Cl [Diclofenac sodium]
  mean (LOPAC_screen_w_protease): 1.426
[7]
  inhibition at 5 µM: 3.59%
[8]
  inhibition at 5 µM: -0.743%

## O=C(O)CN(CCN(CC(=O)O)CC(=O)O)CCN(CC(=O)O)CC(=O)O [Diethylenetriaminepentaacetic acid]
[21]
  mean: 3.2
[22]
  Replicate_1: 5.3521
[23]
  Replicate_2: 1.048

## Br.CO[C@H]1CC=C2CCN3CCC4=C(CC(=O)OC4)[C@]23C1 [Dihydro-beta-erythroidine hydrobromide]
[6]
  mean (LOPAC_screen_w_protease): 2.038
[19]
  Replicate_1 (LOPAC_screen_w_protease): 1.621
[20]
  Replicate_2 (LOPAC_screen_w_protease): 2.454

## COc1cc(CNC(=O)CCCCCCC(C)C)ccc1O [Dihydrocapsaicin]
[9]
  inhibition at 5 µM: 3.14%
[10]
  inhibition at 5 µM: 4.91%
[11]
  inhibition at 5 µM: 1.38%
